From PubChem BioAssay (NCI)
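GI50: concentration for 50% inhibition of growth. TGI: concentration producing complete growth inhibition.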

Key:
Assay in all cases: DTP human tumour cell line panel, 384-well format
OVCAR-5 ovarian = tested on: OVCAR-5 ovarian
SW-620 colon = tested on: SW-620 colon
MDA-MB-435 melanoma = tested on: MDA-MB-435 melanoma
UO-31 renal = tested on: UO-31 renal
NCI-H23 lung = tested on: NCI-H23 lung
SK-MEL-28 melanoma = tested on: SK-MEL-28 melanoma
SN12C renal = tested on: SN12C renal
OVCAR-8 ovarian = tested on: OVCAR-8 ovarian
SNB-75 CNS = tested on: SNB-75 CNS
SNB-19 CNS = tested on: SNB-19 CNS
HS 578T breast = tested on: HS 578T breast
SK-MEL-2 melanoma = tested on: SK-MEL-2 melanoma
A498 renal = tested on: A498 renal
OVCAR-3 ovarian = tested on: OVCAR-3 ovarian
MALME-3M melanoma = tested on: MALME-3M melanoma
NCI/ADR-RES ovarian = tested on: NCI/ADR-RES ovarian
CCRF-CEM leukemia = tested on: CCRF-CEM leukemia
PC-3 prostate = tested on: PC-3 prostate
IGROV1 ovarian = tested on: IGROV1 ovarian
EKVX NSCLC = tested on: EKVX NSCLC
SK-OV-3 ovarian = tested on: SK-OV-3 ovarian
RXF 393 renal = tested on: RXF 393 renal
DU-145 prostate = tested on: DU-145 prostate
MDA-MB-231 breast = tested on: MDA-MB-231 breast
TK-10 renal = tested on: TK-10 renal
HOP-62 NSCLC = tested on: HOP-62 NSCLC
UACC-257 melanoma = tested on: UACC-257 melanoma
MDA-MB-468 breast = tested on: MDA-MB-468 breast
BT-549 breast = tested on: BT-549 breast
HCT-116 colon = tested on: HCT-116 colon
ACHN renal = tested on: ACHN renal
CAKI-1 renal = tested on: CAKI-1 renal
HT29 colon = tested on: HT29 colon
HCT-15 colon = tested on: HCT-15 colon
MOLT-4 leukemia = tested on: MOLT-4 leukemia
NCI-H322M lung = tested on: NCI-H322M lung
LOX IMVI melanoma = tested on: LOX IMVI melanoma
NCI-H522 lung = tested on: NCI-H522 lung
SF-295 CNS = tested on: SF-295 CNS
RPMI-8226 leukemia = tested on: RPMI-8226 leukemia
OVCAR-4 ovarian = tested on: OVCAR-4 ovarian
U251 glioblastoma = tested on: U251 glioblastoma
HOP-92 NSCLC = tested on: HOP-92 NSCLC
A549 NSCLC = tested on: A549 NSCLC
786-0 renal = tested on: 786-0 renal
NCI-H226 lung = tested on: NCI-H226 lung
HL-60(TB) leukemia = tested on: HL-60(TB) leukemia
K-562 leukemia = tested on: K-562 leukemia
T-47D breast = tested on: T-47D breast
SF-268 CNS = tested on: SF-268 CNS
M14 melanoma = tested on: M14 melanoma
SF-539 CNS = tested on: SF-539 CNS
MCF7 breast = tested on: MCF7 breast
UACC-62 melanoma = tested on: UACC-62 melanoma
KM12 colon = tested on: KM12 colon

C1CN1c1nc(N2CC2)nc(N2CC2)n1
GI50 (OVCAR-5 ovarian): 5.96 µM
TGI (OVCAR-5 ovarian): 22 µM
GI50 (SW-620 colon): 2.84 µM
TGI (SW-620 colon): 20 µM
GI50 (MDA-MB-435 melanoma): 10.8 µM
TGI (MDA-MB-435 melanoma): 23.1 µM
GI50 (UO-31 renal): 5.17 µM
TGI (UO-31 renal): 17.9 µM
GI50 (NCI-H23 lung): 1.22 µM
TGI (NCI-H23 lung): 4.3 µM
GI50 (SK-MEL-28 melanoma): 10.3 µM
TGI (SK-MEL-28 melanoma): 22.1 µM
GI50 (SN12C renal): 1.21 µM
TGI (SN12C renal): 10.3 µM
GI50 (OVCAR-8 ovarian): 1.39 µM
TGI (OVCAR-8 ovarian): 15.9 µM
GI50 (SNB-75 CNS): 1.67 µM
TGI (SNB-75 CNS): 10.3 µM
GI50 (SNB-19 CNS): 3.73 µM
TGI (SNB-19 CNS): 18.1 µM
GI50 (HS 578T breast): 11.6 µM
TGI (HS 578T breast): 24 µM
GI50 (SK-MEL-2 melanoma): 8.35 µM
TGI (SK-MEL-2 melanoma): 18.8 µM
GI50 (A498 renal): 3.36 µM
TGI (A498 renal): 18.6 µM
GI50 (OVCAR-3 ovarian): 3.13 µM
TGI (OVCAR-3 ovarian): 14.5 µM
GI50 (MALME-3M melanoma): 4.87 µM
TGI (MALME-3M melanoma): 18.6 µM
GI50 (NCI/ADR-RES ovarian): 3.02 µM
TGI (NCI/ADR-RES ovarian): 15.1 µM
GI50 (CCRF-CEM leukemia): 0.449 µM
TGI (CCRF-CEM leukemia): 1.35 µM
GI50 (PC-3 prostate): 10.7 µM
TGI (PC-3 prostate): 23.4 µM
GI50 (IGROV1 ovarian): 10.8 µM
TGI (IGROV1 ovarian): 22.9 µM
GI50 (EKVX NSCLC): 15.5 µM
TGI (EKVX NSCLC): 31 µM
GI50 (SK-OV-3 ovarian): 2.76 µM
TGI (SK-OV-3 ovarian): 12.2 µM
GI50 (RXF 393 renal): 3.11 µM
TGI (RXF 393 renal): 13.1 µM
GI50 (DU-145 prostate): 1.04 µM
TGI (DU-145 prostate): 5.94 µM
GI50 (MDA-MB-231 breast): 11.7 µM
TGI (MDA-MB-231 breast): 25.2 µM
GI50 (TK-10 renal): 14.3 µM
TGI (TK-10 renal): 35 µM
GI50 (HOP-62 NSCLC): 0.589 µM
TGI (HOP-62 NSCLC): 2.75 µM
GI50 (UACC-257 melanoma): 12.5 µM
TGI (UACC-257 melanoma): 25.2 µM
GI50 (MDA-MB-468 breast): 0.139 µM
TGI (MDA-MB-468 breast): 0.586 µM
GI50 (BT-549 breast): 2.16 µM
TGI (BT-549 breast): 11.5 µM
GI50 (HCT-116 colon): 1.61 µM
TGI (HCT-116 colon): 16.6 µM
GI50 (ACHN renal): 1.55 µM
TGI (ACHN renal): 4.03 µM
GI50 (CAKI-1 renal): 1.46 µM
TGI (CAKI-1 renal): 14.2 µM
GI50 (HT29 colon): 2.75 µM
TGI (HT29 colon): 15.3 µM
GI50 (HCT-15 colon): 2.34 µM
TGI (HCT-15 colon): 14.1 µM
GI50 (MOLT-4 leukemia): 0.0877 µM
TGI (MOLT-4 leukemia): 0.21 µM
GI50 (NCI-H322M lung): 13.3 µM
TGI (NCI-H322M lung): 27.9 µM
GI50 (LOX IMVI melanoma): 2.25 µM
TGI (LOX IMVI melanoma): 14.8 µM
GI50 (NCI-H522 lung): 1.36 µM
TGI (NCI-H522 lung): 2.87 µM
GI50 (SF-295 CNS): 1.08 µM
TGI (SF-295 CNS): 2.84 µM
GI50 (RPMI-8226 leukemia): 0.736 µM
TGI (RPMI-8226 leukemia): 3.11 µM
GI50 (OVCAR-4 ovarian): 14.7 µM
TGI (OVCAR-4 ovarian): 29 µM
GI50 (U251 glioblastoma): 1.42 µM
TGI (U251 glioblastoma): 13.3 µM
GI50 (HOP-92 NSCLC): 6.61 µM
TGI (HOP-92 NSCLC): 58.6 µM
GI50 (A549 NSCLC): 3.42 µM
TGI (A549 NSCLC): 19.5 µM
GI50 ([…]-0 renal): 2.59 µM
TGI (786-0 renal): 11.9 µM
GI50 (NCI-H226 lung): 4.42 µM
TGI (NCI-H226 lung): 19.9 µM
GI50 (HL-60(TB) leukemia): 0.144 µM
TGI (HL-60(TB) leukemia): 0.3 µM
GI50 (K-562 leukemia): 3.96 µM
TGI (K-562 leukemia): 17.4 µM
GI50 (T-47D breast): 5.49 µM
TGI (T-47D breast): 22.7 µM
GI50 (SF-268 CNS): 0.68 µM
TGI (SF-268 CNS): 10.2 µM
GI50 (M14 melanoma): 1.74 µM
TGI (M14 melanoma): 10.5 µM
GI50 (SF-539 CNS): 1.46 µM
TGI (SF-539 CNS): 4.3 µM
GI50 (MCF7 breast): 1.51 µM
TGI (MCF7 breast): 18 µM
GI50 (UACC-62 melanoma): 1.34 µM
TGI (UACC-62 melanoma): 11.6 µM
GI50 (KM12 colon): 2.47 µM
TGI (KM12 colon): 54.9 µM
